We go through two compounds from patent EP0007206A1, “Phenethanolamines, their formulations, preparation and use” (ELI LILLY AND COMPANY, priority 1978, dated 1980).

Assay type in all cases: in vivo, mice
In test [1] the test system is 755 adenocarcinoma. In words: combination chemotherapy with 5-fluorouracil, implanted 755 adenocarcinoma (Table 6). Conditions: for number of tumor free animals out of those still living / average tumor size: 5 FU 8 mg./kg. i.p. days 5, 9, 13, B 7.5 mg./kg. s.c. twice daily days 5 through 14. The method, then:
(§1) In a typical experiment, laboratory mice were infected by a subcutaneous implantation of a tumor tissue in the axillary region of the body. The implantations were accomplished by means of a trocar. Initial tumor size in each animal generally was about 2 square millimeters. Tumor size was then measured periodically as length and width in mm. Typical tumor systems implanted included adenocarcinoma 755, an Aly Fast strain of bronchiogenic carcinoma, and mecca lymphosarcoma. Oncolytic agents utilized in the tests to determine the potentiating effects of the compounds of the invention.include cytoxan, 5-fluorouracil, vindesine, methotrexate and 6-mercaptopurine. […] Ten infected animals normally were selected to receive a known oncolytic agent. Another ten infected animals were administered the known oncolytic agent in addition to a compound of this invention.
5-Fluorouracil is essentially ineffective against the 755 adenocarcinoma in mice. […] Mice were infected by an implantation of the 755 adenocarcinoma. Thirty animals were given placebo, ten were given 5-fluorouracil alone, and ten were given N-(2-phenyl-2-hydroxyethyl)-1,1-dimethyl-3-(4-aminocarbonylphenyl)propylaminium chloride in combination with 5-fluorouracil. Treatment in all cases was started five days after implantation of the tumor system. 5-Fluorouracil was administered intraperitoneally at the rate of 8 mg./kg. given once on days 5, 9 and 13 following implantation, both to the animals receiving 5-FU alone and the combination. The animals undergoing combination chemotherapy received, in addition to 5-FU, N-(2-phenyl-2-hydroxyethyl)-l,l-dimethyl-3-(4-aminocarbonylphenyl)propylaminium chloride (compound B) at the rate of 7.5 mg./kg. given subcutaneously twice daily on days 5 through 14 of the test. Column I under each of the days of measurement reports the average tumor size in square millimeters of each test group. Column II under each of the days of measurement is the number of tumor free animals out of those still living on that day.

The subject of a further test is mecca- lymphosarcoma. Put plainly: combination chemotherapy with 5 FU, implanted mecca lymphosarcoma (Table 3). Conditions: 5 FU 4 mg./kg. i.p. once daily, A 18.75 mg./kg. s.c. twice daily. Here is the method:
(§2) In a typical experiment, laboratory mice were infected by a subcutaneous implantation of a tumor tissue in the axillary region of the body. The implantations were accomplished by means of a trocar. Initial tumor size in each animal generally was about 2 square millimeters. Tumor size was then measured periodically as length and width in mm. Typical tumor systems implanted included adenocarcinoma 755, an Aly Fast strain of bronchiogenic carcinoma, and mecca lymphosarcoma. Oncolytic agents utilized in the tests to determine the potentiating effects of the compounds of the invention.include cytoxan, 5-fluorouracil, vindesine, methotrexate and 6-mercaptopurine. Twenty or thirty infected animals generally were selected as controls and received placebo. Ten infected animals normally were selected to receive a known oncolytic agent. Another ten infected animals were administered the known oncolytic agent in addition to a compound of this invention.
A similar study was carried out to determine the synergistic effect of N-(2-phenyl-2-hydroxyethyl)-1,1-dimethyl-3-(4-hydroxyphenyl)-propylaminium bromide (compound A) on the antineoplastic activity of 5-fluorouracil (designated in Table 3 as 5 FU) in the treatment of a mecca- lymphosarcoma in mice. 5-Fluorouracil was administered intraperitoneally at the rate of 4 mg./kg. once each day to a group of five test animals. Another group of five infected animals received the combination of 4 mg./kg. of 5 FU given intraperitoneally once each day plus the potentiating agent (compound A) given subcutaneously twice each day at the dose of 18.75 mg./kg. A group of 20 infected animals received placebo. Measurements of average tumor size for each group of animals were made on the tenth, fourteenth and eighteenth day following initial tumor implantation and dosing. Column I under each of the reported days gives the average tumor size in square millimeters. Column II under each of the reported days gives the number of surviving animals out of each test group. […] Moreover, after eighteen days of treatment, three of the five animals receiving combination chemotherapy were still alive, whereas all of the control animals and those receiving 5-FU alone had died.

Test [2] deals with 755 adenocarcinoma. In words: combination chemotherapy with 6-mercaptopurine, implanted 755 adenocarcinoma (Table 7). Conditions: by day 29; 6 MP 4 mg./kg. i.p. once per day on days 5, 9, 13. Here is the method: as §2
Mice were infected by implantation of a 755 adenocarcinoma. Thirty mice were held as controls and received only placebo. Ten mice were administered 4 mg./kg. of 6-mercaptopurine (6 MP) intraperitoneally once per day on the fifth, ninth and thirteenth days following implantation. […]

The subject of test [3] is adenocarcinoma tumor resembling human breast tumor (the 755 tumor system). In words: combination chemotherapy with 6 MP, implanted 755 adenocarcinoma (Table 2). The conditions noted are these: 6 MP 1.5 mg./kg. orally once daily, A 3.75 mg./kg. s.c. twice daily. Here is the method:
as §1
According to the test, 6 MP was administered alone to 10 mice orally at the dose of 1.5 mg./kg. once each day for twenty-eight days. Another group of ten mice received 6 MP daily (1.5 mg./kg.) plus the compound of this invention (A), which was administered subcutaneously at the rate of 3.75 mg./kg. twice daily for twenty-eight days. […] The average tumor size for the test group on the indicated day of measurement is reported in column I under each of the reported days of measurement. In column II of each of the reported days of measurement is recorded the number of surviving animals out of the particular test group.

`O=c1[nH]cc(F)c(=O)[nH]1` [5 FU, 5-fluorouracil]: the “number of tumor free animals out of those still living” value in the test with 755 adenocarcinoma [1] (Day 0) is on record as 0/10; in the test with 755 adenocarcinoma [1] (Day 5) it was 0/10; with 755 adenocarcinoma [1] (Day 12), 0/10; with 755 adenocarcinoma [1] (Day 17), 0/9; in the test on 755 adenocarcinoma [1] (Day 23) it was 0/6; in the test with 755 adenocarcinoma [1] (Day 29), 0/0. The “number of tumor free animals out of those still living” value in the test with 755 adenocarcinoma [1] (Day 73) is 0/0. Further, the average tumor size with 755 adenocarcinoma [1] (Day 5) turned out to be 95 square millimeters; with 755 adenocarcinoma [1] (Day 12), 350 square millimeters; in the test on 755 adenocarcinoma [1] (Day 17), 630 square millimeters; in the test with 755 adenocarcinoma [1] (Day 23) it was 680 square millimeters; with mecca- lymphosarcoma (Day 10), 490 square millimeters; in the test on mecca- lymphosarcoma (Day 14), 490 square millimeters. The “effectiveness in the treatment of the 755 adenocarcinoma” value in the test on 755 adenocarcinoma [1] (mice, summary in words of Table 6) is “ineffective”. The “number of surviving animals out of test group” value in the test on mecca- lymphosarcoma (Day 0) is 5/5; in the test on mecca- lymphosarcoma (Day 10) it was 5/5; with mecca- lymphosarcoma (Day 14), 4/5; in the test with mecca- lymphosarcoma (Day 18), 0/5.

As for `Sc1ncnc2nc[nH]c12` [6 MP, 6-mercaptopurine], the “animals that had died out of ten” value with 755 adenocarcinoma [2] is reported as “All ten”. The “number of surviving animals out of test group” value is 10/10 in test [3] (Day 0); 9/10 in test [3] (Day 9); 7/10 in test [3] (Day 17); 6/10 in test [3] (Day 23); 1/10 in test [3] (Day 28). Besides, the average tumor size in test [3] (Day 9) is reported as 100 square millimeters; in test [3] (Day 17), 340 square millimeters; in test [3] (Day 23), 680 square millimeters; in test [3] (Day 28), 1050 square millimeters.
